Assay [1] has as its system MV-4-11 (human myeloid monocytic leukemia cell line). Kind of assay: Proliferation inhibition activity of compounds to MV-4-11 cells (CellTiter-Glo). The conditions noted are these: MV4-11 cells, 72 h dosing. It counts as cell-based. The method, then:
MV-4-11 (human myeloid monocytic leukemia cell line, culture medium: JIMDM+10% fetal bovine serum) is purchased from Cobioer Biosciences Co., Ltd and cultured in a 5% C02 incubator at 37° C. The cells in a logarithmic growth phase are plated in a 96-well plate at cell densities of 8000 cells/well, 6000 cells/well, 2000 cells/well, 2000 cells/well and 3000 cells/well, and a blank control group is set at the same time.
A compound to be tested and the positive drug are dissolved in dimethyl sulfoxide to prepare a 10 mM stock solution, which is then stored in −80° C. refrigerator for long-time storage. After the cells are plated for 24 h, the 10 mM compound stock solution is diluted with dimethyl sulfoxide to obtain a working solution having a 200-fold concentration (the highest concentration is 200 or 2000 μM, a 3-fold gradient, a total of 10 concentrations), and 3 μL of the working solution of each concentration is added to 197 μL of complete medium, and diluted into a working solution of 3-fold concentration. 50 μL of the working solution is then taken and added to a 100 μL cell culture medium (a final concentration of dimethyl sulfoxide is 0.5%, v/v), and two complex holes are set for each concentration. After 72 h of dosing treatment, 50 μl of CellTiter-Glo® (purchased from Promega) is added to each well. Fluorescence signals are measured on Envision (PerkinElmer) according to an operating procedure of the specification. GraphPad Prism 5 software log(inhibitor) vs. response-Variable slope is used to fit a dose-response curve, so as to obtain the IC50 value of the compound to the inhibition of cell-proliferation. The calculation formulation of the inhibition rate is as follows: […]
wherein: signal value of subject: a mean fluorescence signal of cell+medium+compound group; signal value of blank group: a mean fluorescence signal of medium group (containing 0.5% DMSO); signal value of negative control group: a mean fluorescence signal of cell+medium group (containing 0.5% DMSO).
A general note: ATP-based viability assays read luminescence as a measure of living cells.

The target in a further assay is T1, AXL kinase (Homo sapiens, UniProt P30530).
T1 construct: purchased Carna 08-107
T1 sequence (P30530 473-894 limits assumed): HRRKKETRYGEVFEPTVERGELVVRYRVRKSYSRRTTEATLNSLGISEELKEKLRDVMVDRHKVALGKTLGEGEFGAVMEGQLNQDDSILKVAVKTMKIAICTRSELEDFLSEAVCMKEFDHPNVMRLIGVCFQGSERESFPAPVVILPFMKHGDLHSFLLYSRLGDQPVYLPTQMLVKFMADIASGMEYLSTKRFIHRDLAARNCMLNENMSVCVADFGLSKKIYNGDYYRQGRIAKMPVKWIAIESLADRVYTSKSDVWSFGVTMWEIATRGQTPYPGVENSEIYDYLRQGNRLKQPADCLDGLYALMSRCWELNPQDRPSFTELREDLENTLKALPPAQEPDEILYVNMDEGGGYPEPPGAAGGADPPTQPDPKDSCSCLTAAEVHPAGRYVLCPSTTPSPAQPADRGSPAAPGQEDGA
Kind of assay: Inhibitory activity of compound against AXL kinase (HTRF KinEASE). The conditions noted are these: AXL enzyme (Carna, 08-107), ATP 15 μM; "<" means below detection limit of the test. It counts as biochemical. The method, then: a) AXL enzyme (Carna, 08-107) configuration and addition: a 1×enzyme buffer (200 μL of Enzymatic buffer kinase 5×, 10 μL of 500 mM MgCl2, 10 μL of 100 mM DTT and 6.26 μL of 2500 nM SEB are added with […] of H2O, and prepared into 1 ml of 1× enzyme buffer) is used. AXL enzyme is diluted from 33.33 ng/uL to 0.027 ng/μL (1.67×, final conc.=0.016 ng/uL), a BioTek (MultiFlo FX) automatic liquid dispenser is used, and 6 μL of enzyme solution having a 1.67-fold final concentration is added respectively to compound wells and positive control wells; and 6 μL of 1×Enzymatic buffer is added to negative control wells.
b) Compound preparation and addition: the compounds and positive drugs prepared in the examples are diluted from 10 mM to 100 μM by DMSO, and titrated with a compound titrator (Tecan, D300e). The titrated solution is automatically sprayed by the titrator to each well to reach a required concentration, wherein the first concentration is 1 μM, and after ½ log dilution, a total of 8 concentrations are obtained. The resulting mixture is centrifuged at 2500 rpm for 30 s and incubated at room temperature for 15 min.
c) Preparation and addition of ATP and substrate: ATP (Sigma, A7699) is diluted with 1× enzyme buffer from 10 mM to 75 μM (5×), and the final concentration is 15 μM; the substrate TK Substrate 3-biotin (Cisbio, 61TK0BLC) is diluted with 1× enzyme buffer from 500 μM to 5 μM (5×), andthe final concentration is […]; ATP and the substrate are mixed in equal volume to obtain a mixed solution; the mixed solution is added to each well at 4 μL by using a BioTek automatic dispenser; centrifuged at 2500 rpm for 30 s, and reacted at 25° C. for 45 min.
d) Pirparation and addition of detection reagent: Streptavidin-XL665 (Cisbio, 610SAXLG) is diluted with HTRF KinEASE detection buffer (cisbio) from 16.67 μM to 250 nM (4×), and the final concentration is 62.5 nM; TK Antibody-Cryptate (Cisbio) is diluted with HTRF KinEASE detection buffer (cisbio) from 100× to 5×, and the final concentration is 1×; XL665 and Antibody are mixed in equal volume; the mixed solution is added to each well at 10 μL by using the BioTek automatic dispenser, centrifuged at 2500 rpm for 30 s, and reacted at 25° C. for 1 h. After the reaction is completed, the resulting product is detected by a multi-function plate reader HTR1p
GraphPad Prism 5 software log (inhibitor) vs. response-Variable slope is used to fit a dose-response curve to obtain the IC50 value of the compound to the inhibition of AXL kinase.
The calculation formula of the inhibition rate is as follows: […]

The values that follow come from US20230227484A1, “PYRIMIDINE COMPOUND AS AXL INHIBITOR” (NANJING CHIA TAI TIANQING PHARMACEUTICAL CO., LTD., priority 2020, published 2023).

The structures appear in SMILES notation.

Regarding `Cc1ccc(Nc2nc(Nc3ccc4c(c3)CC[C@@H](N3CCCC3)CC4)ncc2Cl)c(P(C)(C)=O)n1` [Example 81, (S)-(3-((5-chloro-2-((7-(pyrrolidin-1-yl)-6,7,8,9-tetrahydro-5H-benzo[7]annulen-2-yl)amino)pyrimidin-4-yl)amino)-6-methylpyridin-2-yl)dimethyl phosphine oxide], in assay [1], the midpoint of inhibition, the IC50, lay at 3.13 nM. Same read-out and setting: then `CP(C)(=O)c1cc(OC(F)(F)F)ccc1Nc1nc(Nc2ccc3c(c2)CC[C@@H](N2CCCC2)CC3)ncc1Cl` [Example 76, (S)-(2-((5-chloro-2-((7-(pyrrolidin-1-yl)-6,7,8,9-tetrahydro-5H-benzo[7]annulen-2-yl)amino)pyrimidin-4-yl)amino)-5-(trifluoromethoxyl)phenyl)dimethyl phosphine oxide], with 7.98 nM; and `CNC(=O)c1ccc(Nc2nc(Nc3ccc4c(c3)CC[C@@H](N3CCCC3)CC4)ncc2Cl)c(P(C)(C)=O)c1` [Example 77, (S)-4-((5-chloro-2-((7-(pyrrolidin-1-yl)-6,7,8,9-tetrahydro-5H-benzo[7]annulen-2-yl)amino)pyrimidin-4-yl)amino)-3-(dimethylphosphoryl)-N-methylbenzamide], with 10.1 nM. Still for that read-out and setting: the result for `CP(C)(=O)c1cc(OC(F)F)ccc1Nc1nc(Nc2ccc3c(c2)CC[C@@H](N2CCCC2)CC3)ncc1Cl` [Example 75, (S)-(2-((5-chloro-2-((7-(pyrrolidin-1-yl)-6,7,8,9-tetrahydro-5H-benzo[7]annulen-2-yl)amino)pyrimidin-4-yl)amino)-5-(difluoromethoxyl)phenyl)dimethyl phosphine oxide] reads 2.93 nM. In the case of `COc1cc(P(C)(C)=O)c(Nc2nc(Nc3ccc4c(c3)CC[C@@H](N3CCCC3)CC4)ncc2Cl)cc1C#N` [Example 136, (S)-(2-((5-chloro-2-((7-(pyrrolidin-1-yl)-6,7,8,9-tetrahydro-5H-benzo[7]annulen-2-yl)amino)pyrimidin-4-yl)amino)-4-cyano-5-methoxyphenyl)dimethyl phosphine oxide], 13.1 nM corresponded to half-maximal inhibition against AXL kinase (IC50).

As to `CNC(=O)c1c(Nc2nc(Nc3ccc4c(c3)CC[C@@H](N3CCCC3)CC4)ncc2Cl)ccnc1OC` [Example 44, (S)-4-((5-chloro-2-((7-(pyrrolidin-1-yl)-6,7,8,9-tetrahydro-5H-benzo[7]annulen-2-yl)amino)pyrimidin-4-yl)amino)-2-methoxyl-N-methylnicotinamide], it took 1.47 nM to reach half-maximal inhibition on AXL kinase (IC50). In the case of `CNC(=O)c1c(Nc2nc(Nc3ccc4c(c3)CC[C@@H](N3CCCC3)CC4)ncc2Cl)ccc2nccnc12` [Example 48, (S)-6-((5-chloro-2-((7-(pyrrolidin-1-yl)-6,7,8,9-tetrahydro-5H-benzo[7]annulen-2-yl)amino)pyrimidin-4-yl)amino)-N-methylquinoxaline-5-carboxamide], the 50% inhibitory concentration (IC50) (commonly the concentration needed to halve the response being measured) on AXL kinase was determined as 0.42 nM. The same measure, in the same setting: then `[2H]C([2H])([2H])P(=O)(c1cc(F)ccc1Nc1nc(Nc2ccc3c(c2)CC[C@@H](N2CCCC2)CC3)ncc1Cl)C([2H])([2H])[2H]` [Example 57, (S)-(2-((5-chloro-2-((7-(pyrrolidin-1-yl)-6,7,8,9-tetrahydro-5H-benzo[7]annulen-2-yl)amino)pyrimidin-4-yl)amino)-5-fluorophenyl)bis(methyl-d3) phosphine oxide], with 6.27 nM; and `CNC(=O)c1ncccc1Nc1nc(Nc2ccc3c(c2)CC[C@@H](N2CCCC2)CC3)ncc1Cl` [Example 33, (S)-3-((5-chloro-2-((7-(pyrrolidin-1-yl)-6,7,8,9-tetrahydro-5H-benzo[7]annulen-2-yl)amino)pyrimidin-4-yl)amino)-N-methylpicolinamide], with 5.15 nM; and `[2H]c1ccc(Nc2nc(Nc3ccc4c(c3)CC[C@@H](N3CCCC3)CC4)ncc2Cl)c(P(C)(C)=O)c1` [Example 111, (S)-(2-((5-chloro-2-((7-(pyrrolidin-1-yl)-6,7,8,9-tetrahydro-5H-benzo[7]annulen-2-yl)amino)pyrimidin-4-yl)amino)phenyl-5-d)dimethyl phosphine oxide], with 1.81 nM. Molecule `CP(C)(=O)c1cc(C2CC2)ccc1Nc1nc(Nc2ccc3c(c2)CC[C@@H](N2CCCC2)CC3)ncc1Cl` [Example 112, (S)-(2-((5-chloro-2-((7-(pyrrolidin-1-yl)-6,7,8,9-tetrahydro-5H-benzo[7]annulen-2-yl)amino)pyrimidin-4-yl)amino)-5-cyclopropylphenyl)dimethyl phosphine oxide] registered an IC50 at AXL kinase of 2.41 nM. This IC50 and that of the molecule before are within 1.5-fold of each other. Same read-out and setting: the result for `COC(=O)c1ccncc1Nc1nc(Nc2ccc3c(c2)CC[C@@H](N2CCCC2)CC3)ncc1Cl` [Example 27] reads 19 nM. Same read-out and setting: then `CP(C)(=O)c1c(Nc2nc(Nc3ccc4c(c3)CC[C@@H](N3CCCC3)CC4)ncc2Cl)ccc(F)c1Cl` [Example 132, (S)-(2-chloro-6-((5-chloro-2-((7-(pyrrolidin-1-yl)-6,7,8,9-tetrahydro-5H-benzo [7]annulen-2-yl)amino)pyrimidin-4-yl)amino)-3-fluorophenyl)dimethyl phosphine oxide], with 2.36 nM. Still for that read-out and setting: the result for `Clc1cnc(Nc2ccc3c(c2)CC[C@@H](N2CCCC2)CC3)nc1Nc1cccc2c1OCO2` [Example 9, (S)-4-(benzo[d][1,3]dioxo-4-yl)-5-chloro-2-(7-(pyrrolidin-1-yl)-6,7,8,9-tetrahydro-5H-benzo[7]annulen-2-yl)pyrimidine-2,4-diamine] reads 21.9 nM; that for `Cc1cnc(-c2ccccc2Nc2nc(Nc3ccc4c(c3)CC[C@@H](N3CCCC3)CC4)ncc2Cl)o1` [Example 17, (S)-5-chloro-N^4-(2-(5-methyloxazol-2-yl)phenyl)-N^2-(7-(pyrrolidin-1-yl)-6,7,8,9-tetrahydro-5H-benzo[7]annulen-2-yl)pyrimidine-2,4-diamine], 27.9 nM; that for `CNC(=O)c1cc(C(F)(F)F)ccc1Nc1nc(Nc2ccc3c(c2)CC[C@@H](N2CCCC2)CC3)ncc1Cl` [Example 35, (S)-2-((5-chloro-2-((7-(pyrrolidin-1-yl)-6,7,8,9-tetrahydro-5H-benzo[7]annulen-2-yl)amino)pyrimidin-4-yl)amino)-N-methyl-5-(trifluoromethyl)benzamide], 1.21 nM.
